Data published in US5434138A, “Gonadoliberin antagonists” (Hoechst Aktiengesellschaft, priority 1990, dated 1995).

Key:
serum testosterone = assay: Testosterone-lowering effect on infusion by minipumps; format: in vivo, rat; settings: male rats, subcutaneous infusion by minipumps for 7 days
Experimental: (§1) The peptides according to the invention have been tested for an atrophic effect on androgen-dependent organs and for an LH- and testosterone-lowering effect in serum and blood of male rats by continuous infusion (MINIPUMPS). The ovulation-inhibiting effect has been tested on female rats. The histamine release was checked using rat peritoneal mast cells.
The testosterone-lowering effect was tested on male rats during subcutaneous infusion for 7 days. The biological effect on androgen-dependent organs and serum testosterone was recorded. The test compounds were administered by subcutaneous infusion using minipumps at a rate of […] for 7 days. The test compounds were dissolved in sterile 5 % strength mannitol solution. The minipumps were implanted subcutaneously in the region of the back under anesthesia and aseptic conditions.
Serum testosterone was extracted with diethyl ether and determined by a specific RIA.
Testosterone-lowering effect on infusion by minipumps

[1] = tested on: rat peritoneal mast cells; assay: Histamine release from peritoneal mast cells; format: cell-based, Wistar rats; settings: 37° C., 30 minutes
Experimental: as §1
Wistar rats were sacrificed by decapitation. 50 ml of a 0.9% strength NaCl solution were injected into the abdominal cavity and, after gentle massage, the abdominal wall was opened. The fluid, which contains the peritoneal cells, was aspirated using a Pasteur pipette and then centrifuged. The pelleted cells were resuspended and, after testing viability, diluted to 10^6 mast cells/ml.
150 μl of the dissolved gonadoliberin antagonist were added to a suspension of 10^5 mast cells in 150 μl of 0.9 % strength NaCl solution. After incubation at 37° C. for 30 minutes, the test tubes were centrifuged and the supernatant was removed. The LHRH antagonist Ac-D-Nal-D-p-Cl-D-Phe-D-Trp-Ser-Tyr-D-Ser(Rha)-Leu-Arg-Pro-Azagly-NH2, known to be a compound which induces histamine release by mast cells, was used as comparison substance. To determine the total histamine release (100%), the mast cell suspensions were rapidly boiled over a Bunsen burner.
A modified form of the methods described by Skofitsch et al. (J. Chromatography, 226, 53-59, 1981) and Siraganian and Hook (in Manual of Clinical Laboratory Immunology; eds: Rose et al. American Society of Microbiology, Washington D.C., pages 675, 1986) was used. Briefly summarized, 100 μl of a 1N NaOH and 100 μl of phthalaldehyde were added to 250 μl of supernatant and shaken vigorously. After a reaction time of 2 minutes, the fluorophore was converted into a more strongly fluorescent and stable product by acidification with 50 μl of 3N HCl. 10 μl of the supernatant were injected into the Chromspher C8 column (Chrompak FRW) of the HPLC system. This system comprises an SP 8100 chromatograph (Spectra Physics) and an SP 4270 integrator (Spectra Physics) and an LS-1 fluorescence detector (Perkin Elmer). The fluorescence was recorded at the wavelengths of 360 nm excitation and 450 nm emission.
Histamine release from peritoneal mast cells (μl/ml)

[2] = tested on: immature female rats (LHRH-induced ovulation); assay: Rat antiovulation assay; format: in vivo; settings: PMSG-pretreated immature female rats, phenobarbital; 800 ng LHRH s.c. 2 hours after antagonist
Experimental: as §1
The ovulation-inhibiting effect was tested in immature female rats which had been pretreated with PMSG (pregnant mare serum gonadotropin) in order to induce follicle maturation, Spontaneous ovulation was prevented by barbiturate (phenobarbital). A test dose of 800 ng of LHRH was injected subcutaneously 2 hours after the antagonists. The test substances were injected subcutaneously dissolved in 5% strength mannitol solution. The next day the Fallopian tubes were dissected out and stained with Patent Blue, and the tubular oocytes were counted under a microscope. The dose for an ovulation-inhibiting effect (ED 100) was determined for all the antagonists.

histamine secretion = settings: A. Phillips et al., Life Sci. 41 (1987); cited from earlier work

Ac-D-NaI-D-p-Cl-Phe-D-Trp-Ser-Tyr-D-Ser(Rha)-Leu-Ser(Rha)-pro-Azagly-NH2 [Example 1]
Testosterone-lowering effect on infusion by minipumps: Dose per day (serum testosterone): 120 μg/24 h/rat
Histamine release, percentage relative to total histamine release on boiling ([1]; 0.01 (μl/ml) antagonist): 0.33%
Histamine release, percentage relative to total histamine release on boiling ([1]; 0.1 (μl/ml) antagonist): 2.82%
Histamine release, percentage relative to total histamine release on boiling ([1]; 1 (μl/ml) antagonist): -2.16%
Histamine release, percentage relative to total histamine release on boiling ([1]; 10 (μl/ml) antagonist): -5.37%
Histamine release, percentage relative to total histamine release on boiling ([1]; 100 (μl/ml) antagonist): -8.61%
Ovulation-inhibiting dose (ED 100) [2]: 120 ng per rat s.c.

Ac-D-Nal-D-p-Cl-D-Phe-D-Trp-Ser-Tyr-D-Ser(Rha)-Leu-Arg-Pro-Azagly-NH2 [Comparison substance, reference compound]
Histamine release, percentage relative to total histamine release on boiling ([1]; 0.01 (μl/ml) antagonist): 2.6%
Histamine release, percentage relative to total histamine release on boiling ([1]; 0.1 (μl/ml) antagonist): 2.1%
Histamine release, percentage relative to total histamine release on boiling ([1]; 1 (μl/ml) antagonist): 15.3%
Histamine release, percentage relative to total histamine release on boiling ([1]; 10 (μl/ml) antagonist): 92.4%
Histamine release, percentage relative to total histamine release on boiling ([1]; 100 (μl/ml) antagonist): 107.6%

Ac-D-Nal-D-p-Cl-Phe-D-Pal-Ser-Tyr-D-Ser(Rha)-Leu-Ser (Rha)-Pro-Azagly-NH2 [Example 2]
Testosterone-lowering effect on infusion by minipumps: Dose per day (serum testosterone): 120 μg/24 h/rat
Histamine release, percentage relative to total histamine release on boiling ([1]; 0.01 (μl/ml) antagonist): 2.5%
Histamine release, percentage relative to total histamine release on boiling ([1]; 0.1 (μl/ml) antagonist): 4.6%
Histamine release, percentage relative to total histamine release on boiling ([1]; 1 (μl/ml) antagonist): 3.7%
Histamine release, percentage relative to total histamine release on boiling ([1]; 10 (μl/ml) antagonist): 0.9%
Histamine release, percentage relative to total histamine release on boiling ([1]; 100 (μl/ml) antagonist): 0.0%
Ovulation-inhibiting dose (ED 100) [2]: 256 ng per rat s.c.

Ac-D-Nal-D-p-Cl-Phe-D-Pal-Ser-Tyr-D-Ser(Rha)-Leu-Ser(Fuc)-Pro-Azagly-NH2 [Example 4]
Testosterone-lowering effect on infusion by minipumps: Dose per day (serum testosterone): 60 μg/24 h/rat
Ovulation-inhibiting dose (ED 100) [2]: 64 ng per rat s.c.

Ac-D-Nal-D-p-Cl-Phe-D-Pal-Ser-Tyr-D-Ser(Rha)-Leu-Ser(Rha)-Pro-D-Ala-NH2 [Example 5]
Testosterone-lowering effect on infusion by minipumps: Dose per day (serum testosterone): 60 μg/24 h/rat
Histamine release, percentage relative to total histamine release on boiling ([1]; 0.01 (μl/ml) antagonist): 1.9%
Histamine release, percentage relative to total histamine release on boiling ([1]; 0.1 (μl/ml) antagonist): 2.4%
Histamine release, percentage relative to total histamine release on boiling ([1]; 1 (μl/ml) antagonist): 0.9%
Histamine release, percentage relative to total histamine release on boiling ([1]; 10 (μl/ml) antagonist): 0.3%
Histamine release, percentage relative to total histamine release on boiling ([1]; 100 (μl/ml) antagonist): 3.8%
Ovulation-inhibiting dose (ED 100) [2]: 64 ng per rat s.c.

Ac-D-Nal-D-p-Cl-Phe-D-Trp-Ser-Tyr-D-Ser(Rha)-Leu-Ser(Xyl)-Pro-Azagly-NH2 [Example 3]
Testosterone-lowering effect on infusion by minipumps: Dose per day (serum testosterone): 120 μg/24 h/rat
Ovulation-inhibiting dose (ED 100) [2]: 512 ng per rat s.c.

Nal-Glu
histamine secretion (histamine secretion): greatly reduced
